pIC50: −log10 of the molar value. Entries after “also recorded” stand apart in the source; their conditions may differ.
Experiments:
[1] = system: Luc-CM disseminated tumors; experiment: Luc-CM disseminated xenograft tumor model; format: in vivo, NSG mice
Description: (§1) Luc-PANC-1 (5×106) and Luc-CM (0.5×106) cells were resuspended in 200 ul of PBS and injected subcutaneously (SQ) or intraperitonially (IP) to 6-8-week-old NSG mice respectively. Tumor bearing mice were imaged using Xenogen IVIS® Lumina Bioluminescence Imaging System (Perkin Elmer) every week after cell injection. At 4 weeks, animals were randomized based on slope of luciferase signal and treatment was initiated. […] For all animals body weight was recorded weekly and Luc-PANC-1 tumor volume was measured weekly with a caliper. For scheduled sacrifice experiments, animals were euthanized after 4 weeks of treatment. […] Harvested tumors were excised and weighted, and fixed in alcoholic formalin (67.5% Ethanol, 10% Formaldehyde 37%, 22.5% water) for pathology analysis. Tumor volume was calculated as [volume=0.52 (length×width2)].
(§2) From this stock, the exact volume needed for daily in vivo delivery was then formulated into 95% corn oil (Mazola) at 2 different concentrations: 1.25 mg/mi (formulation 1) and 3.125 mg/ml (formulation 2). To determine the volume of solution administered to the mice, 200 μl (maximum volume to be delivered in mice via IP or oral gavage) was divided by 25 g of mouse body weight. Therefore, 8 μl of formulation 1 or 2 multiplied by the weight of the mice were used to reach a dose of 10 or 25 mg/kg of body weight, respectively.
(§3) Prior to bioluminescence imaging the region where tumors were located was shaved. Mice were then anesthetized with 2.5% isoflurane in 02 then administered the D-luciferin substrate (150 mg/kg in PBS) by IP injection. Following the injection of the D-luciferin substrate mice were imaged using the Xenogen IVIS® Lumina Bioluminescence Imaging System (Perkin Elmer). The peak of luciferase photon flux was recorded 6 minutes after injection of the D-luciferin substrate. The total photon flux was analyzed and restricted to tumor ROI (region of interest) using Living Image v2.60.1 software (Imaging Systems).

[2] = system: H1048, CM, MIA PaCa-2, PANC-1 and Luc-PANC-1 cancer cell lines; experiment: Viability assay screen in a panel of cancer cell lines; format: cell-based; settings: 10 uM, 72 hours (FIG. 8)
Description: Viability assay performed in a panel of cancer cell lines including H1048 (small cell lung cancer), CM (pancreatic neuroendocrine tumor), MIA PaCa-2 and PANC-1 (pancreatic ductal adenocarcinoma), Luc-PANC-1 (pancreatic ductal adenocarcinoma cells expressing firefly luciferase). Initial viability assay screens were performed with single drug concentration (10 μM) or DMSO control (0.25%). […] The threshold of 10 μM was selected since compounds showing under 50% viability at 10 μM would indicate greater cytotoxicity than disclosed TS inhibitor 5-FU and present a promising lead candidate for further study.
To identify potential TS small molecule inhibitors, molecular docking was used to computationally screen compounds with the ability to bind TS. The details of the procedure are presented in the Methods section. The top ranked 26 compounds were acquired and designated 1-A through 26-Z, then used to determine the cytotoxicity at a 10 uM concentration in several cancer cell lines. […] This initial computational screen provided a predictive model that allowed a preliminary assessment for possible drug candidates. Subsequent experiments were pursued to validate biological activity and to define mechanisms for TS inhibition.

[3] = Maximum tolerated dose (MTD) study; format: in vivo
Source text: After 3 treatment cycles, animals rested (no treatment) for one more week before euthanasia. Body weight and physical status of all mice were closely monitored. Tissues were collected and fixed in alcoholic formalin to test for toxicity.

[4] = system: Luc-PANC-1 xenograft tumors; experiment: Luc-PANC-1 subcutaneous xenograft tumor model; format: in vivo, NSG mice; settings: for median survival: control 54 days
Description: as §1, §2, §3

BON cells = experiment: Cell viability (MTS) assay, BON; format: cell-based; settings: 72 hour drug incubation (FIG. 1C)
[5] = biological target: T1, human thymidylate synthase (hTS) (Homo sapiens, UniProt P04818); experiment: Tritium based TS catalytic activity assay; format: biochemical
T1 construct: 6xHis (N); made in house; host or cells: E. coli BL21 (DE3)
T1 sequence (P04818 whole entry): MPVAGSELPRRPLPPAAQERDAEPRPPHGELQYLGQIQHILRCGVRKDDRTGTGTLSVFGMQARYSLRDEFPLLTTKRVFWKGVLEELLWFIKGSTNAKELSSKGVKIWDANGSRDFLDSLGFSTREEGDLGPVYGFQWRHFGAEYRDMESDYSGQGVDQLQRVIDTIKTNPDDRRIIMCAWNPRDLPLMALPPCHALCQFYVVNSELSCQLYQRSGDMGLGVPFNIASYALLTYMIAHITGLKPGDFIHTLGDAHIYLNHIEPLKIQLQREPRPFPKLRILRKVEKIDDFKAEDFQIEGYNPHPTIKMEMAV
Description: The catalytic activity of TS was determined by measuring the release of [31] from [5-3H]dUMP (ViTrax, VT122) resulting from the conversion of dUMP to dTMP as previously described12,33. […] Reactions were performed in 50 mM KH2PO4 (Sigma Aldrich, P0662) at pH 7.2 using 2 μg of purified human TS. Reactions were performed in a final volume of 200 μL with 100 mM β-mercaptoethanol (Sigma Aldrich, M7522), 40 μM dUMP (Sigma Aldrich, D3876), 100 μM 5,10-mTHF, and the [5-3H]dUMP tracer (ViTrax, VT122) accounting for 0.06% of the final dUMP concentration in the reaction. […] Reactions were initiated by the addition of the dUMP substrate and 5,10-mTHF cofactor, then incubated at 37° C. for 30 minutes. […] Reactions were terminated by the addition of 100 μL of ice-cold 20% trichloroacetic acid (Sigma Aldrich, T6399), then excess [5-31-]dUMP was removed by the addition of 200 μL of an albumin-coated activated charcoal solution. The albumin-coated activated charcoal solution was prepared by mixing 10 g of acid-washed activated dextran coated charcoal (Sigma Aldrich, C6241) with 2.5 g of bovine albumin (Sigma Aldrich, A1933) in 100 mL of H2O. The suspension was incubated at room temperature for 30 minutes and then centrifuged for 30 minutes at 10,000×g. […] For all experiments, positive control reactions were performed with no drug representing 100% TS activity, and negative control reactions were performed with no TS enzyme or no 5,10-mTHF substrate representing 0% TS activity. All assays were performed in biological duplicate and technical duplicate. Results were analyzed using GraphPad Prism 8.

SMILES: CCc1nc(N)nc(N)c1-c1ccc(N(C)Cc2ccccc2)c([N+](=O)[O-])c1 [Compound 19-S]
- body weight and behavior ([1]; 25 mg/kg IP, 3 cycles): did not show significant deviations in body weight or display adverse behavior
- tumor progression (abdominal bioluminescence photon flux) ([1]; 25 mg/kg IP, 3 cycles, p=0.0032 vs vehicle): efficiently inhibited tumor progression
- body weight ([1]; 25 mg/kg oral gavage): no significant deviations in body weight
- cytotoxicity (viability) [2]: exhibited cytotoxicity in the 5 cell lines examined
- mortality ([3]; 50 mg/kg IP, n=3 (FIG. 10B)): found dead after 12th, 13th and 14th dose
- mortality ([3]; 50 mg/kg IP, n=3 (FIG. 10C)): 2 were found dead after 1st dose and one animal reached endpoint
- mortality ([3]; 100 mg/kg IP, n=2 (FIG. 10B)): found dead after 1st and 3rd dose
- mortality ([3]; 100 mg/kg IP, n=3 (FIG. 10C)): found dead after 1st dose
- MTD at 3 treatment cycles of 5 consecutive daily doses ([3]; mouse, in vivo, IP, NSG mice, read-out: maximum tolerated dosage (MTD)): 25 mg/kg
- median survival ([4]; 10 mg/kg PO until survival endpoint): 68 days
- body weight ([4]; 25 mg/kg IP, 4 cycles, vs vehicle): no significant deviations
- final tumor mass ([4]; 25 mg/kg IP, 4 cycles, p=0.0029 vs vehicle): significantly reduced
- tumor progression (bioluminescence photon flux, tumor volume) ([4]; 25 mg/kg IP, 5 days on/2 days rest, 4 cycles, p=0.0023 flux, p<0.0001 volume vs vehicle): inhibited tumor progression
- median survival ([4]; 25 mg/kg PO until survival endpoint): 84 days
- adverse effects / body weight ([4]; 25 mg/kg oral gavage, 4 cycles): did not show adverse effects or declines in body weight
- tumor progression (photon flux, tumor volume, excised tumor mass) ([4]; 25 mg/kg oral gavage, 4 cycles (FIGS. 7A-7H)): inhibited tumor progression
- survival compared to vehicle control ([4]; 10 or 25 mg/kg PO (either dose), Kaplan-Meier): statistically significant (p=0.0027) prolonged survival
- total flux (bioluminescence) ([4]; 10 or 25 mg/kg PO, at 6 weeks after cell injection, vs vehicle): significant reduction of total flux
- tumor volume ([4]; 10 or 25 mg/kg PO, p=0.0079, maintained till endpoint): significant inhibition of tumor volume
- body weight ([4]; 10 or 25 mg/kg PO, survival study, vs vehicle): no significant differences
- pIC50 (BON cells): 6.92
- inhibition of TS catalytic activity, 19-S series library screen ([5]; 250 uM (FIG. 4A)): inhibited TS activity
- TS inhibition at decreasing drug concentrations ([5]; compared with Pem and MTX controls (FIG. 4C)): greater TS inhibition than both MTX and Pen; also recorded: both strong TS and DHFR inhibition
- TS activity (conversion of dUMP) ([5]; drug 250 μM, 10 μg/mL bacterially expressed TS protein (FIG. 1B)): comparable TS inhibition as seen with the 5-FU metabolite FdUrd
